Values joined by “and” are separate entries in the source; they are usually repeats but may differ in a detail not shown here. Identical values can stand only once. Like-named read-outs stand apart in the source and are kept apart here.
Tests used:
In vivo mouse PK = conditions: plasma, mouse (female Balb/C), 5 mg kg^–1
Experimental: (§1) Mice (female Balb/C) were dosed po or iv with 28c (5 mg kg^–1) in 10% DMSO and 5% Tween 20 in saline. After administration, the mice were sacrificed at 5, 15, and 30 min and 1, 2, 4, 6, and 24 h. Blood was removed by cardiac puncture and centrifuged to obtain plasma samples. The plasma samples (100 μL) were added to the analytical internal standard (IS; olomoucine), followed by protein precipitation with 300 μL of methanol. Following centrifugation (1200g, 30 min, 4 °C), the resulting supernatants were analyzed for 28c levels by LC/MS using a reversed-phase X-Bridge C18 (Waters, 50 × 2.1 mm) analytical column and positive ion mode ESI MRM on a Waters 2795 liquid chromatography system coupled to a Quattro Ultima triple-quadrupole mass spectrometer (Waters).
as §1, with “40f” for “28c”, “The plasma samples (100 μL) were added to the analytical internal standard (IS; olomoucine), followed by protein precipitation with 300 μL of methanol.” left out, “Polar RP (Phenomenex,” for “X-Bridge C18 (Waters,”, “2” for “2.1”

ASK1 = ASK1 (Homo sapiens, UniProt Q99683); assay: Kinase selectivity profiling; assay type: biochemical; conditions: 110-kinase panel
Excerpt: (§2) Compound 28c was profiled against a panel of 110 kinases at the International Centre for Protein Kinase Profiling, Division of Signal Transduction Therapy, University of Dundee. Compound 40f was profiled against a panel of 50 kinases (MRC-PPU Express Screen) also at the International Centre for Protein Kinase Profiling.

CHK1 = CHK1 (Homo sapiens, UniProt O14757); assay: Kinase selectivity profiling; assay type: biochemical; conditions: 110-kinase panel
Excerpt: as §2

DAPK1 = DAPK1 (Homo sapiens, UniProt P53355); assay: Kinase selectivity profiling; assay type: biochemical; conditions: 110-kinase panel
Excerpt: as §2

EPH-B1 = EPH-B1 (Homo sapiens, UniProt P54762); assay: Kinase selectivity profiling; assay type: biochemical; conditions: 110-kinase panel, read-out: % activity remaining, EPH2B1
Excerpt: as §2

ERK1 = ERK1 (Homo sapiens, UniProt P27361); assay: Kinase selectivity profiling; assay type: biochemical; conditions: 110-kinase panel
Excerpt: as §2

ERK8 = ERK8 (Homo sapiens, UniProt Q8TD08); assay: Kinase selectivity profiling; assay type: biochemical; conditions: 110-kinase panel
Excerpt: as §2

FGF-R1 = FGF-R1 (Homo sapiens, UniProt P11362); assay: Kinase selectivity profiling; assay type: biochemical; conditions: 110-kinase panel, read-out: % activity remaining, FGF2R1
Excerpt: as §2

JNK3 = JNK3 (Homo sapiens, UniProt P53779); assay: Kinase selectivity profiling; assay type: biochemical; conditions: 110-kinase panel
Excerpt: as §2

LKB1 = LKB1 (Homo sapiens, UniProt Q15831); assay: Kinase selectivity profiling; assay type: biochemical
Excerpt: as §2

MAPKAP-K2 = MAPKAP-K2 (Homo sapiens, UniProt P49137); assay: Kinase selectivity profiling; assay type: biochemical; conditions: 110-kinase panel, read-out: % activity remaining, MAPKAP2K2
Excerpt: as §2

MAPKAP-K3 = MAPKAP-K3 (Homo sapiens, UniProt Q16644); assay: Kinase selectivity profiling; assay type: biochemical; conditions: 110-kinase panel, read-out: % activity remaining, MAPKAP2K3
Excerpt: as §2

MARK4 = MARK4 (Homo sapiens, UniProt Q96L34); assay: Kinase selectivity profiling; assay type: biochemical; conditions: 110-kinase panel
Excerpt: as §2

MKK2 = MKK2 (Homo sapiens, UniProt P36507); assay: Kinase selectivity profiling; assay type: biochemical; conditions: 110-kinase panel
Excerpt: as §2

PHK = PHK (Homo sapiens, UniProt Q16816); assay: Kinase selectivity profiling; assay type: biochemical; conditions: 110-kinase panel
Excerpt: as §2

PIM2 = PIM2 (Homo sapiens, UniProt Q9P1W9); assay: Kinase selectivity profiling; assay type: biochemical; conditions: 110-kinase panel
Excerpt: as §2

PRK2 = PRK2 (Homo sapiens, UniProt Q16513); assay: Kinase selectivity profiling; assay type: biochemical
PRK2, sequence (Q16513 whole entry, species assumed): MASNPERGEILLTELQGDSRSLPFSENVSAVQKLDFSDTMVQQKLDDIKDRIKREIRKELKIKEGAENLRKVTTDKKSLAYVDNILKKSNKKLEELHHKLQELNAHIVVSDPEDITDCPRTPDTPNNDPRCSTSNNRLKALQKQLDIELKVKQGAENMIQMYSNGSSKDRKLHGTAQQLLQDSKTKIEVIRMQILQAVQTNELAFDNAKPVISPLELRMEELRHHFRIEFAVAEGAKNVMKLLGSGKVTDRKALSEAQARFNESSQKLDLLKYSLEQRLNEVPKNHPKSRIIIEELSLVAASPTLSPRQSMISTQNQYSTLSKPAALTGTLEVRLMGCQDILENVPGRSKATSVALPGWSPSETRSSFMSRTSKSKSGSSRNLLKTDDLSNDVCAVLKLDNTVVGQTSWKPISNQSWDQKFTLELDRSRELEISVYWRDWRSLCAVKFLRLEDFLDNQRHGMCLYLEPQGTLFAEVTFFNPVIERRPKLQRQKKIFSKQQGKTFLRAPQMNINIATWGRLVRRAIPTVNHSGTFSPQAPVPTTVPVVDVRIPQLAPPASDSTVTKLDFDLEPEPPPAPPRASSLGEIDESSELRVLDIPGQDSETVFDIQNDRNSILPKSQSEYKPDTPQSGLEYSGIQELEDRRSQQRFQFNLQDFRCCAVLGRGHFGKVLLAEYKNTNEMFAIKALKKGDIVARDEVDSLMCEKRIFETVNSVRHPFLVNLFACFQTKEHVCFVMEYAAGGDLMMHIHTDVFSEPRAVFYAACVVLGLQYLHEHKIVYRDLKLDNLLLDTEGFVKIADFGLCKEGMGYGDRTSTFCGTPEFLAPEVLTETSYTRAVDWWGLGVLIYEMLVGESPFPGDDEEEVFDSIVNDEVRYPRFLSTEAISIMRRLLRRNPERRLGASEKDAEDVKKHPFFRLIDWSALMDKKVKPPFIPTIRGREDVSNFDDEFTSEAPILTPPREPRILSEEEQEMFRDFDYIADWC
Excerpt: as §2

SRPK1 = SRPK1 (Homo sapiens, UniProt Q96SB4); assay: Kinase selectivity profiling; assay type: biochemical
SRPK1, sequence (Q96SB4 whole entry): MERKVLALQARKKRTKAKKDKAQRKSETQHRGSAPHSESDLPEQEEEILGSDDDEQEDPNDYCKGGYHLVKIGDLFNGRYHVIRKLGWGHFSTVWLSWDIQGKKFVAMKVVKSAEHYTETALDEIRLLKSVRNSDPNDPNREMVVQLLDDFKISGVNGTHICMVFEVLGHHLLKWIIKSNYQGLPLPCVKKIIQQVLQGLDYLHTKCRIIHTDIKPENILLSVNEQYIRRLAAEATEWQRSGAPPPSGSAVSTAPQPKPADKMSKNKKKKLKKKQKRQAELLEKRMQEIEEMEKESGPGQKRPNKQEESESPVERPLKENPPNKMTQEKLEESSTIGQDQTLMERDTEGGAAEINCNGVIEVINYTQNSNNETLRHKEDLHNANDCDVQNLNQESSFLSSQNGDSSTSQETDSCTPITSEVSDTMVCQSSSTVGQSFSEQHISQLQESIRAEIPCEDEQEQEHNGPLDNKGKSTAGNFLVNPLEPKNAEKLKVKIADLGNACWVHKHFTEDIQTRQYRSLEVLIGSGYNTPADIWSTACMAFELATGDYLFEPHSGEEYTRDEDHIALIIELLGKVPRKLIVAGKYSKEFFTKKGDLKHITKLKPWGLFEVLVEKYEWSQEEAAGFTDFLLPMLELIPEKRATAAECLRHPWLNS
Excerpt: as §2

TAK1 = TAK1 (Homo sapiens, UniProt O43318); assay: Kinase selectivity profiling; assay type: biochemical
TAK1, sequence (O43318 1-303 limits assumed): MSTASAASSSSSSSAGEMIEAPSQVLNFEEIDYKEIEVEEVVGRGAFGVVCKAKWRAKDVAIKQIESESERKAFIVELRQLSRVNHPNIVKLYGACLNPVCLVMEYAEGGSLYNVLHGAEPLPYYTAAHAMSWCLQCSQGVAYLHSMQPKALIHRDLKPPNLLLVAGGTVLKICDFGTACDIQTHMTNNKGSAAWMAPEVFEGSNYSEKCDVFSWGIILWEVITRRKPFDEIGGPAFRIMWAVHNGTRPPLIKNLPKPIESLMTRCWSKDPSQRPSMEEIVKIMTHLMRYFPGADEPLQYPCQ
Excerpt: as §2

VEGFR (VEGFR1) = VEGFR (VEGFR1) (Homo sapiens, UniProt P17948); assay: Kinase selectivity profiling; assay type: biochemical; conditions: read-out: % activity remaining, VEG2FR
VEGFR (VEGFR1), sequence (P17948 27-1338, species assumed): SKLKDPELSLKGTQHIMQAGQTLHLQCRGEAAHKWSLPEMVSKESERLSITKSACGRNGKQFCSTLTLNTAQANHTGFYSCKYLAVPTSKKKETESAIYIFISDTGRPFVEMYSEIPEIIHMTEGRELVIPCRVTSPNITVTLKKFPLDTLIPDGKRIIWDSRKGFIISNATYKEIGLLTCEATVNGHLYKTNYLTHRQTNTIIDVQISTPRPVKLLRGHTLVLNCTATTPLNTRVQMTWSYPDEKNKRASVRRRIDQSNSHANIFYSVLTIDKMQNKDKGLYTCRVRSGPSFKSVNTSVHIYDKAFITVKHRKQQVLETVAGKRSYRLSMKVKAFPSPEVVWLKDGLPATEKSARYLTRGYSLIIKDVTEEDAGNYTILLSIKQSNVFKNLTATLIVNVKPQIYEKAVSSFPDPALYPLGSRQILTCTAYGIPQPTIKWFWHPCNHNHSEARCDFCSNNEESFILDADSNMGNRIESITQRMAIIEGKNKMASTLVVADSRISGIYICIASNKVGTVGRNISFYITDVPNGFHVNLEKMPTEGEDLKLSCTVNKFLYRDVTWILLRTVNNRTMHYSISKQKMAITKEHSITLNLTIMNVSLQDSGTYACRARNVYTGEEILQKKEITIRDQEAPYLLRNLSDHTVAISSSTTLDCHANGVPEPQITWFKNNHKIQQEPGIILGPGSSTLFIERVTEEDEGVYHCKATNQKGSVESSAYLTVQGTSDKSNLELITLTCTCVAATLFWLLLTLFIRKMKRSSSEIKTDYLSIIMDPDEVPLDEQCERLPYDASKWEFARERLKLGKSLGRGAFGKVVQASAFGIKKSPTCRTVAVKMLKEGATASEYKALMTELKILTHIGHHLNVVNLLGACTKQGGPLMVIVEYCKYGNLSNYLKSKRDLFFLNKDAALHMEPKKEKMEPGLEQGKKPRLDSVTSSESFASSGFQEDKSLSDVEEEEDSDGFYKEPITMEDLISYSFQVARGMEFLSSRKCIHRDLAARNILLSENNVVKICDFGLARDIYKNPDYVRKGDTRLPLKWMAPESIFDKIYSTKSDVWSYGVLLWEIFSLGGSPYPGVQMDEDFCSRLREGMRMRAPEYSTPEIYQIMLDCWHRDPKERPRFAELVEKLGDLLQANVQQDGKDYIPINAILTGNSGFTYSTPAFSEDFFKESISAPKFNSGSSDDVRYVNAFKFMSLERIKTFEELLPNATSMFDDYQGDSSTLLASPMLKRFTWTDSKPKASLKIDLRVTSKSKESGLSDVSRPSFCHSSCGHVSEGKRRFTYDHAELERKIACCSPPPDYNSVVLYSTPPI
Excerpt: as §2

YES1 = YES1 (Homo sapiens, UniProt P07947); assay: Kinase selectivity profiling; assay type: biochemical; conditions: 110-kinase panel
Excerpt: as §2

Aurora A = Aurora A (Homo sapiens, UniProt O14965); assay: Kinase selectivity profiling; assay type: biochemical; conditions: 110-kinase panel
Aurora-A wild type = molecular target: T1, Aurora-A wild type (Homo sapiens, UniProt O14965); assay: Cellular inhibition of Aurora-A autophosphorylation at T288 in HCT116 cells; assay type: cell-based; conditions: 1.5 μM
T1 construct: expressed in transfected cells; host or cells: Hela cervical cancer cells; HCT116 human colon carcinoma cells
Experimental: Determination of cellular inhibition of Aurora-A (at T288) and histone H3 (at S10) has been described previously.[19] Briefly, cells were transfected with the Myc-tagged Aurora-A wild type or mutants and treated with different concentrations of the inhibitors for 2 h followed by lysis in LDS sample buffer. The samples were sonicated and boiled, and the proteins were separated by LDS–PAGE and transferred to nitrocellulose membranes. The upper and lower parts of the membranes were probed with anti-P-T288 (Aurora-A autophosphorylation/activation) and anti-P-histone H3 (Aurora-B substrate phosphorylation) antibodies, respectively. The blots were quantified and IC50 values determined using Graphpad Prism. Mammalian cell expression constructs encoding Aurora-A T217E, L215R, and R220K mutants with N-terminal Myc tags were produced using Quikchange mutagenesis (Stratagene).

Aurora B = Aurora B (Homo sapiens, UniProt Q96GD4); assay: Cellular inhibition of histone H3 phosphorylation at S10 (Aurora-B biomarker) in HCT116 cells; assay type: cell-based
Aurora B, sequence (Q96GD4 whole entry): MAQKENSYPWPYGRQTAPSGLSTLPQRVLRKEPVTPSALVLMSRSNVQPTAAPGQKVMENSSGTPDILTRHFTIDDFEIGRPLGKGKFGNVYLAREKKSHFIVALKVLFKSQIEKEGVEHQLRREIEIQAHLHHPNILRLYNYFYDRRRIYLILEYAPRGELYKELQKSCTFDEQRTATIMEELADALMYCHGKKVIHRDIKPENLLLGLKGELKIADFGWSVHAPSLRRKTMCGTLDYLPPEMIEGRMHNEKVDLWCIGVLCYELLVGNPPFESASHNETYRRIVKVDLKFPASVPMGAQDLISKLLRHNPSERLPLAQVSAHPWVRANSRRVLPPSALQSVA
Aurora B, sequence (Q9NQS7 whole entry partner): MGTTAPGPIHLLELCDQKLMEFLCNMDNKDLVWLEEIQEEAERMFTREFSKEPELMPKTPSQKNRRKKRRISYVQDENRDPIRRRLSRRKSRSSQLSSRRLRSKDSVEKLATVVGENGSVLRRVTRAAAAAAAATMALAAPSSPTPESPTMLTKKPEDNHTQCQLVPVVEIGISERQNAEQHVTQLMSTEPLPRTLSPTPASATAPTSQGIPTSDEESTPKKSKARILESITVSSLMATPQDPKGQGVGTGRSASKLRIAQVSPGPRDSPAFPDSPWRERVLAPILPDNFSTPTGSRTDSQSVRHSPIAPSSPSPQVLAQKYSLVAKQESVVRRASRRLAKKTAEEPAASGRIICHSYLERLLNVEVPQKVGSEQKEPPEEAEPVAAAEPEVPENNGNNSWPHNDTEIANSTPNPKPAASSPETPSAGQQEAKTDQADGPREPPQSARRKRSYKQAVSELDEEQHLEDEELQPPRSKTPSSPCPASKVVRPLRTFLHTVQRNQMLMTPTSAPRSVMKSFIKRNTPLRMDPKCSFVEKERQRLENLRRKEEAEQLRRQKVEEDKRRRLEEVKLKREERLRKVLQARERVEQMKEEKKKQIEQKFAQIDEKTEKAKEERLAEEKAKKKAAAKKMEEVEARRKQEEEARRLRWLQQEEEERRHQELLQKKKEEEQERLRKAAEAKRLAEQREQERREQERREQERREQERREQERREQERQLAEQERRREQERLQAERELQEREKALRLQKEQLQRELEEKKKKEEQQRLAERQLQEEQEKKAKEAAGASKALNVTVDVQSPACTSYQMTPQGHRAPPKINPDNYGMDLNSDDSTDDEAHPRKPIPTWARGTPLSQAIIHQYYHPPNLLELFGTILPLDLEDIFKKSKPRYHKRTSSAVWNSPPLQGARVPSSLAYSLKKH
Aurora B, sequence (O15392 whole entry partner): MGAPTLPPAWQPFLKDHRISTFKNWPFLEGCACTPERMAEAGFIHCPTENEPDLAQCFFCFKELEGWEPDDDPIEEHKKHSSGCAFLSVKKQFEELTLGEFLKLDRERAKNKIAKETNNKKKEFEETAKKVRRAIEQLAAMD
Aurora B, sequence (Q53HL2 whole entry partner): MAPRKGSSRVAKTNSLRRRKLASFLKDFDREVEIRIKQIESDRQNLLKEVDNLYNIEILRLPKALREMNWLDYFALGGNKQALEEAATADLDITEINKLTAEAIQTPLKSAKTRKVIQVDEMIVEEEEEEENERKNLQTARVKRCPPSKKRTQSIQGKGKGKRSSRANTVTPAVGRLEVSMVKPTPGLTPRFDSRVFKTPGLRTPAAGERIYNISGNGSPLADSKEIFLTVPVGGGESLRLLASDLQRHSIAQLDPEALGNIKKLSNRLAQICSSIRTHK

AMPK (hum) = assay: Kinase selectivity profiling; assay type: biochemical, human; conditions: 1 µM; 50-kinase panel (MRC-PPU Express Screen)
Excerpt: as §2

[1] = 50-kinase panel (MRC-PPU Express Screen)

## Cc1nn(C)cc1-c1nc2c(Oc3ccc(C(=O)Nc4ccccc4)cc3)c(Cl)cnc2[nH]1 [compound 28c, 4-((6-Chloro-2-(1,3-dimethyl-1H-pyrazol-4-yl)-3H-imidazo[4,5-b]pyridin-7-yl)oxy)-N-phenylbenzamide]
In vivo mouse PK
  clearance: 0.883 mL/min and 44.2 mL/min/kg
In vivo mouse PK; read-out: volume of distribution
  Vd: 0.036 L
ASK1
  remaining activity at 1 µM: 119%
CHK1
  remaining activity at 1 µM: 94%
DAPK1
  remaining activity at 1 µM: 95%
EPH-B1
  remaining activity at 1 µM: 127%
ERK1
  remaining activity at 1 µM: 172%
ERK8
  remaining activity at 1 µM: 36%
FGF-R1
  remaining activity at 1 µM: 82%
JNK3
  remaining activity at 1 µM: 87%
LKB1; 110-kinase panel
  remaining activity at 1 µM: 97%
MAPKAP-K2
  remaining activity at 1 µM: 91%
MAPKAP-K3
  remaining activity at 1 µM: 92%
MARK4
  remaining activity at 1 µM: 85%
MKK2
  remaining activity at 1 µM: 94%
PHK
  remaining activity at 1 µM: 101%
PIM2
  remaining activity at 1 µM: 117%
PRK2; 110-kinase panel
  remaining activity at 1 µM: 81%
SRPK1; 110-kinase panel
  remaining activity at 1 µM: 89%
TAK1; 110-kinase panel
  remaining activity at 1 µM: 31%
VEGFR (VEGFR1); 110-kinase panel
  remaining activity at 1 µM: 17%
YES1
  remaining activity at 1 µM: 111%
Aurora A
  remaining activity at 1 µM: 4%

## Cc1nn(C)cc1-c1nc2c(Oc3ccc(C(=O)NC4CCC4)cc3)c(Cl)cnc2[nH]1 [compound 40f, 4-((6-Chloro-2-(1,3-dimethyl-1H-pyrazol-4-yl)-3H-imidazo[4,5-b]pyridin-7-yl)oxy)-N-cyclobutylbenzamide]
Aurora-A wild type
  phosphorylation of Aurora-A: completely inhibited
Aurora B; 1.5 μM
  histone H3 phosphorylation: increase in histone H3 phosphorylation
Aurora B; 25 μM
  inhibition of histone H3 phosphorylation at S10: partial inhibition
Aurora B; 50 μM
  inhibition of histone H3 phosphorylation at S10: complete inhibition
LKB1; [1]
  remaining activity at 1 µM: 108%
PRK2; [1]
  remaining activity at 1 µM: 92%
SRPK1; [1]
  remaining activity at 1 µM: 95%
TAK1; [1]
  remaining activity at 1 µM: 59%
VEGFR (VEGFR1); [1]
  remaining activity at 1 µM: 7%
AMPK (hum)
  % activity remaining, AMPK (hum): 85%
